In article PMC10455244, “Alpha-Mangostin: A Potent Inhibitor of TRPV3 and Pro-Inflammatory Cytokine Secretion in Keratinocytes” (International Journal of Molecular Sciences, 2023):

Target: T1, TRPV3 (G573C) (Homo sapiens, UniProt Q8NET8, G573C)
T1 construct: host or cells: HEK 293T (transient transfection, pEGFP-N1 co-transfected as a marker)
T1 sequence (Q8NET8 1-790 G573C): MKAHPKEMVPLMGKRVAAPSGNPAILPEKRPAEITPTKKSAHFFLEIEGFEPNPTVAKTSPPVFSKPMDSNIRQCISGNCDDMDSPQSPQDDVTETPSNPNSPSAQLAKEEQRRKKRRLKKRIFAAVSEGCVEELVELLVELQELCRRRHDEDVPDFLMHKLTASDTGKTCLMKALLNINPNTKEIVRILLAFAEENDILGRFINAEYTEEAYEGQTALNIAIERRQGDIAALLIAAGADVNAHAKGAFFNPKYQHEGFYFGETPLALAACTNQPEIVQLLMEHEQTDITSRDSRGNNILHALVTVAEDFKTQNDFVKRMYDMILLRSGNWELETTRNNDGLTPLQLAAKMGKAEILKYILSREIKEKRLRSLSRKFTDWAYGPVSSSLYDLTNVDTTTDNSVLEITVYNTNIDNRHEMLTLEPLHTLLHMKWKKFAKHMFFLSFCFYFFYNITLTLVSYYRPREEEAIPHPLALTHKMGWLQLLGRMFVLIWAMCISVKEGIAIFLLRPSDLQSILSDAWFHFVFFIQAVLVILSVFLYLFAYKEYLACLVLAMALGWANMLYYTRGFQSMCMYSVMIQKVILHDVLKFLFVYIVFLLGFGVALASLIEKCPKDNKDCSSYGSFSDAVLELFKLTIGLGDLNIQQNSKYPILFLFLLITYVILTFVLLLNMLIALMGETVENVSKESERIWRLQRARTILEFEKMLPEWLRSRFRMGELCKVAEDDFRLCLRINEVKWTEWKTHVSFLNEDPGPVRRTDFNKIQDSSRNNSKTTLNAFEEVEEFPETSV
Experiment: Whole-cell patch-clamp, spontaneous current of TRPV3 G573C mutant in HEK 293T cells
Type: cell-based
Conditions: −100 mV, read-out: IC50, inhibition of spontaneous current of TRPV3 G573C mutant
Procedure: For electrophysiology recording and calcium measurement, 10 µM 74a (a TRPV3 inhibitor) was added about 6 h after transfection to inhibit channel activities and prevent cell death. First, the electrophysiology activities of the mutations were recorded using a whole-cell patch-clamp. Our data presented spontaneous TRPV3 currents when −100 mV to 100 mV ramp pulses were applied, which dramatically declined with the addition of 1 µM alpha-mangostin (Figure 4A).
Figure 4 Alpha-mangostin inhibited the activity of hyperactive TRPV3 mutant channels and rescued mutation-induced cell death. (A) Alpha-mangostin inhibited the channel current in representative TRPV3 (G573S)- and TRPV3 (G573C)-expressing HEK 293T cells. […] Currents were normalized to the response at −100 mV before adding alpha-mangostin. (C) Alpha-mangostin inhibited TRPV3-mediated intracellular calcium increase in TRPV3 (G573S)-expressing HEK 293T cells. […] The bar graph on the right summarizes the change in the intracellular calcium rise inhibited by alpha-mangostin. […]
In the whole-cell configuration, voltage ramps from −100 to +100 mV over 1 s were applied every 20 s and the holding potential was set at 0 mV. Sampling at 10 kHz and low-pass filtering at 5 kHz (w-c) were applied for all recorded currents. Recorded data were analyzed using Clampfit ver. […]

Compound: COc1c(O)cc2oc3cc(O)c(CC=C(C)C)c(O)c3c(=O)c2c1CC=C(C)C [Alpha-mangostin]
- IC50: 1940 ± 400 nM
